Literature values as cited in patent EP4729055A1, “TREATMENT OF DISORDERS USING SPHINGOSINE-1-PHOSPHATE RECEPTOR MODULATORS” (The Provost, Fellows, Foundation Scholars, & the other …, priority 2024, dated 2026).

CCCCCCCCc1ccc(CCC(N)(CO)CO)cc1 [fingolimod, 2-Amino-2-[2-(4-octylphenyl)ethyl]propane-1,3-diol]
log P: 5.5
